According to patent US10077309B2, “Compositions and methods for targeting of the surfactant protein A receptor” (The Penn State Research Foundation, priority 2014, dated 2018):

Tested on: IAV infection of macrophages / influenza binding to SP-R210
Format: cell-based, influenza A virus

Row | Substance | competition with influenza virus for binding to the receptor SP-R210 | block of infection of macrophages with IAV (flow cytometry)
1 | SP-A: human surfactant protein A isolated from therapeutic lung lavage of alveolar proteinosis patients | competitively inhibits binding of the influenza virus to the receptor | –
2 | desialylated SP-A: desialylated surfactant protein A | compete for influenza binding to the same receptor | blocks infection of macrophages with IAV
